Measurements from US20250345446A1 (Draupnir Bio ApS, priority 2022, published 2025).
Where two headings read alike, the source gives them in different places. One block for each molecule: values may come before it. No end group written: not given here. *: point of attachment. Biotin = O=C1N[C@H]2[C@H](CS[C@H]2CCCCC(=O)*)N1

Legend:
[1] = tested on: HEK293 cells expressing full length sortilin receptor; assay: Cellular uptake of NA650 in HEK293/sortilin cells; format: cell-based; conditions: for IC50: SEQ ID NO.: 147 (300 nM) and NA650 (100 nM), 3 h incubation, competitor titrated, read-out: IC50 of inhibition of degrader induced internalization of NA650; for AUC score, target internalization: Table 6, NA650 (100 nM), 3 h, biotin warhead compounds
Description: Cellular uptake of NA650 was investigated in HEK293 cells expressing full length sortilin receptor (Petersen et. al.). Cells were seeded in poly-L-lysine coated 96-well plates (Perkin Elmer) (40K/well) in 50 μL culture medium (DMEM (Lonza)+10% FBS (SigmaAldrich)+1% penicillin-streptomycin (SigmaAldrich)+1% GlutaMAX (Gibco)+100 μg/mL Zeocin (Invitrogen)) and incubated overnight in cell incubator (37° C., humidified, 5% CO2).
Culture medium was replaced with assay medium (DMEM (Lonza)+10% fetal bovine serum (SigmaAldrich)+1% penicillin-streptomycin (SigmaAldrich)+1% GlutaMAX (Gibco)) containing NA650 (Invitrogen) (100 nM) (Thermo Fischer) and peptidic bifunctional compounds (9.8 nM to 10 μM). Cells were incubated for 3 h in cell incubator before they were washed in dPBS (Bionordika). The DyLight650 signal in the cell layer was detected using a fluorescence plate reader (BMG Labtech Clariostar).
Cellular uptake of NA650 was investigated in HEK293 cells expressing full length sortilin receptor using a methodology analogous to example 3.

[2] = tested on: HEK293 cells expressing full length sortilin receptor; assay: Cellular uptake of AlexaFluor488-anti-DNP antibody; format: cell-based; conditions: for cell associated FI signal, response to concentration series (in words): 3 h incubation, 1.9 nM to 2 μM, AlexaFluor488-anti-DNP antibody 100 nM; for AUC score, target internalization: Table 7, AlexaFluor488-anti-DNP antibody (100 nM), 3 h, DNP warhead compounds
Excerpt: In this example, the small molecule degraders consist of a sortilin binder linked to warhead DNP to target anti-DNP antibodies (BF001 to BF016)
Cellular uptake of AlexaFluor488-anti-DNP antibody (Thermo Fisher) was investigated in HEK293 cells expressing full length sortilin receptor in a methodology analogous to example 3.

[3] = biological target: T1, soluble ectodomain of sortilin-6his (Homo sapiens, UniProt Q99523, V650M); assay: MST binding to soluble ectodomain of sortilin-6his
T1 construct: the soluble ectodomain of sortilin-6his is measured by microscale thermophoresis (MST)
T1 sequence (Q99523 with tags, fused parts or gaps V650M): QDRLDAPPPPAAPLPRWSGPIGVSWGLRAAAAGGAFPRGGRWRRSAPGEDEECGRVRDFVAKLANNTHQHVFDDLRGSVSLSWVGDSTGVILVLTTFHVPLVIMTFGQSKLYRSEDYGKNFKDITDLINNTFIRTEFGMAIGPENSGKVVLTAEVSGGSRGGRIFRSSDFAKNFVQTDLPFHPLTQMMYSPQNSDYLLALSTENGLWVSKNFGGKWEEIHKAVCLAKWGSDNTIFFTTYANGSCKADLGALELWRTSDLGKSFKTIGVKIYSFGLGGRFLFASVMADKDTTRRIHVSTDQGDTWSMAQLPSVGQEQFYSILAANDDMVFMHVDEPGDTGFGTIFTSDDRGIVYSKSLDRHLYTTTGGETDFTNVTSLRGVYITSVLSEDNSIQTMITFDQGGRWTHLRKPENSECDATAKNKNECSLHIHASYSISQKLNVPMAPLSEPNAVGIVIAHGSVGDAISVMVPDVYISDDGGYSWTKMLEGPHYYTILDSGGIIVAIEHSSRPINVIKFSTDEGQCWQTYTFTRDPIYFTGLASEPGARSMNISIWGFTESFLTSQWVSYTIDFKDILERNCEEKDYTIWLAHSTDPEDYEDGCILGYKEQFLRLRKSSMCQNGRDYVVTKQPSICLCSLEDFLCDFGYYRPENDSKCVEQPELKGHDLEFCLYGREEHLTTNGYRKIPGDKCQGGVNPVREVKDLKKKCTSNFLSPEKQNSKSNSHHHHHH

Sortilin-6His [4] = biological target: T2, Sortilin-6His (Homo sapiens (Human), UniProt Q99523 78-755); assay: MST on labelled sortilin-6his ectodomain; KD score: ++ <100 nM, + 100-2000 nM
T2 construct: In MST it was labelled non-covalently with RED-tris-NTA; also called soluble ectodomain of sortilin-6his; fluorescent sortilin-6his
T2 sequence (Q99523 78-755 V650M limits assumed): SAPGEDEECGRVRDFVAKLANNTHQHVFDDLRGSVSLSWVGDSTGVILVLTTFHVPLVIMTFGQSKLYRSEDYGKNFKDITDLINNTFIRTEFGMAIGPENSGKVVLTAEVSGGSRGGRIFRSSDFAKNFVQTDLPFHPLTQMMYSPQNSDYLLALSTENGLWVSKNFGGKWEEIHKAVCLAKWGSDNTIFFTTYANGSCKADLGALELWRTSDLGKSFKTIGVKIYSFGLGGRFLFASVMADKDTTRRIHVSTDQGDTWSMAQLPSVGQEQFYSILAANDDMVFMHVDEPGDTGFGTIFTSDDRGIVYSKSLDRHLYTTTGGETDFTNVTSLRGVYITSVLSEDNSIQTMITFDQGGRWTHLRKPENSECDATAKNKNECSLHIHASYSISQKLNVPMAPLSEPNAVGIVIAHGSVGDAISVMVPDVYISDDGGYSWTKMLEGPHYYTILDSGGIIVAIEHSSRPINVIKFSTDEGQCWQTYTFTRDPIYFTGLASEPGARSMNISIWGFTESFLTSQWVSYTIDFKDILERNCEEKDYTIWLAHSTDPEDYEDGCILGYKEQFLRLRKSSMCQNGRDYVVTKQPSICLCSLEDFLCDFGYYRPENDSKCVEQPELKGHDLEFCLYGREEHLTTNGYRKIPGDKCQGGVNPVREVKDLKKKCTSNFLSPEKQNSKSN

Sortilin-6His [5] = biological target: T2, Sortilin-6His; assay: MST on labelled sortilin-6his ectodomain; KD score: +++ <25 nM, ++ 25-250 nM, + 250-2500 nM, 0 >2500 nM
[6] = Table 4, small molecule bifunctional compounds, MST, read-out: KD score, binding to sortilin (Kd)

Molecule: Cc1cccc(NC(=O)c2ccc(C(F)(F)F)cc2C(=O)O)n1 [AF38469, reference compound]
IC50 [1]: 589 nM

Molecule: O=C(O)CCCC[C@@H]1SC[C@@H]2NC(=O)N[C@@H]21 [biotin, reference compound]
IC50 ([1]; Homo sapiens, HEK293): 56 nM

Molecule: CC(C)(C)CC[C@H](NC(=O)c1ccc(Oc2cccc(C(=O)NCCOCCOCCOCCOCCOCCNc3ccc([N+](=O)[O-])cc3[N+](=O)[O-])c2)nc1)C(=O)O [BF011, (2S)-2-[[6-[3-[2-[2-[2-[2-[2-[2-(2,4-dinitroanilino)ethoxy]ethoxy]ethoxy]ethoxy]ethoxy]ethylcarbamoyl]phenoxy]pyridine-3-carbonyl]amino]-5,5-dimethyl-hexanoic acid]
cell associated FI signal, response to concentration series (in words) [2]: bell-shaped response
AUC score, target internalization [2]: + (AUC < 10.000)

Molecule: CC(C)(C)CC[C@H](NC(=O)c1ccc(Oc2cccc(OCCOCCOCCOCCOCCOCCOCCNc3ccc([N+](=O)[O-])cc3[N+](=O)[O-])c2)nc1)C(=O)O [BF014, (2S)-2-[[6-[3-[2-[2-[2-[2-[2-[2-[2-(2,4-dinitroanilino)ethoxy]ethoxy]ethoxy]ethoxy]ethoxy]ethoxy]ethoxy]phenoxy]pyridine-3-carbonyl]amino]-5,5-dimethyl-hexanoic acid]
Kd [3]: 10 to 250 nM
AUC score, target internalization [2]: ++ (AUC > 10.000)

Molecule: CC(C)(C)CC[C@H](NC(=O)c1ccc(Oc2cccc3c(C(=O)NCCCNC(=O)CCOCCOCCOCCOCCNc4ccc([N+](=O)[O-])cc4[N+](=O)[O-])cccc23)nc1)C(=O)O [BF010, (2S)-2-[[6-[[5-[3-[3-[2-[2-[2-[2-(2,4-dinitroanilino)ethoxy]ethoxy]ethoxy]ethoxy]propanoylamino]propylcarbamoyl]-1-naphthyl]oxy]pyridine-3-carbonyl]amino]-5,5-dimethyl-hexanoic acid]
Kd [3]: 1 to 10 nM
AUC score, target internalization [2]: ++ (AUC > 10.000)

Molecule: CC(C)(C)CC[C@H](NC(=O)c1ccc(Oc2cccc(C(=O)NCCOCCOCCOCCOCCOCCOCCOCCNc3ccc([N+](=O)[O-])cc3[N+](=O)[O-])c2)nc1)C(=O)O [BF006, (2S)-2-[[6-[3-[2-[2-[2-[2-[2-[2-[2-[2-(2,4-dinitroanilino)ethoxy]ethoxy]ethoxy]ethoxy]ethoxy]ethoxy]ethoxy]ethylcarbamoyl]phenoxy]pyridine-3-carbonyl]amino]-5,5-dimethyl-hexanoic acid]
Kd [3]: 1 to 10 nM
cell associated FI signal, response to concentration series (in words) [2]: bell-shaped response
AUC score, target internalization [2]: + (AUC < 10.000)

Molecule: CC(C)(C)CC[C@H](NC(=O)c1ccc(Oc2cccc(C(=O)NCCOCCOCCOCCOCCOCCOCCNc3ccc([N+](=O)[O-])cc3[N+](=O)[O-])c2)nc1)C(=O)O [BF008, (2S)-2-[[6-[3-[2-[2-[2-[2-[2-[2-[2-(2,4-dinitroanilino)ethoxy]ethoxy]ethoxy]ethoxy]ethoxy]ethoxy]ethylcarbamoyl]phenoxy]pyridine-3-carbonyl]amino]-5,5-dimethyl-hexanoic acid]
Kd [3]: 1 to 10 nM
AUC score, target internalization [2]: + (AUC < 10.000)

B1: Biotin-GGRQLL-OH (peptide)
peptide: Biotin-GGRQLL-OH
SMILES: CC(C)C[C@H](NC(=O)[C@H](CC(C)C)NC(=O)[C@H](CCC(N)=O)NC(=O)[C@H](CCCNC(=N)N)NC(=O)CNC(=O)CNC(=O)CCCC[C@@H]1SC[C@@H]2NC(=O)N[C@@H]21)C(=O)O
KD (Sortilin-6His [4]): < 100 nM

B2: PYILKRQLYENKPRRPYIL (peptide)
peptide: PYILKRQLYENKPRRPYIL
KD (Sortilin-6His [5]): < 25 nM

B3: Biotin-RQLL-OH (peptide)
peptide: Biotin-RQLL-OH
SMILES: CC(C)C[C@H](NC(=O)[C@H](CC(C)C)NC(=O)[C@H](CCC(N)=O)NC(=O)[C@H](CCCNC(=N)N)NC(=O)CCCC[C@@H]1SC[C@@H]2NC(=O)N[C@@H]21)C(=O)O
KD (Sortilin-6His [4]): < 100 nM

B4: Biotin-GGSGGGGFQLL-OH (peptide)
peptide: Biotin-GGSGGGGFQLL-OH
SMILES: CC(C)C[C@H](NC(=O)[C@H](CC(C)C)NC(=O)[C@H](CCC(N)=O)NC(=O)[C@H](Cc1ccccc1)NC(=O)CNC(=O)CNC(=O)CNC(=O)CNC(=O)[C@H](CO)NC(=O)CNC(=O)CNC(=O)CCCC[C@@H]1SC[C@@H]2NC(=O)N[C@@H]21)C(=O)O
KD (Sortilin-6His [4]): < 100 nM

B5: Biotin-GGSGGGGRQLL-OH (peptide)
peptide: Biotin-GGSGGGGRQLL-OH
SMILES: CC(C)C[C@H](NC(=O)[C@H](CC(C)C)NC(=O)[C@H](CCC(N)=O)NC(=O)[C@H](CCCNC(=N)N)NC(=O)CNC(=O)CNC(=O)CNC(=O)CNC(=O)[C@H](CO)NC(=O)CNC(=O)CNC(=O)CCCC[C@@H]1SC[C@@H]2NC(=O)N[C@@H]21)C(=O)O
KD (Sortilin-6His [4]): < 100 nM

B6: LYENKPRRPYIL (peptide)
peptide: LYENKPRRPYIL
KD (Sortilin-6His [5]): 25 to 250 nM

B7: APLRDPAPRQLL (peptide)
peptide: APLRDPAPRQLL
KD (Sortilin-6His [5]): 25 to 250 nM

B8: Biotin-GGSGGFQLL-OH (peptide)
peptide: Biotin-GGSGGFQLL-OH
SMILES: CC(C)C[C@H](NC(=O)[C@H](CC(C)C)NC(=O)[C@H](CCC(N)=O)NC(=O)[C@H](Cc1ccccc1)NC(=O)CNC(=O)CNC(=O)[C@H](CO)NC(=O)CNC(=O)CNC(=O)CCCC[C@@H]1SC[C@@H]2NC(=O)N[C@@H]21)C(=O)O
KD (Sortilin-6His [4]): < 100 nM

B9: WSGPIGVSWGLRAAAAGFQLL-OH (peptide)
peptide: WSGPIGVSWGLRAAAAGFQLL-OH
KD (Sortilin-6His [5]): < 25 nM

B10: Biotin-GGSRQLL-OH (peptide)
peptide: Biotin-GGSRQLL-OH
SMILES: CC(C)C[C@H](NC(=O)[C@H](CC(C)C)NC(=O)[C@H](CCC(N)=O)NC(=O)[C@H](CCCNC(=N)N)NC(=O)[C@H](CO)NC(=O)CNC(=O)CNC(=O)CCCC[C@@H]1SC[C@@H]2NC(=O)N[C@@H]21)C(=O)O
KD (Sortilin-6His [4]): 100 to 2000 nM

Further lines, with some results ahead:

Kd [3, 6]: 1 to 10 nM
Molecule: CC(C)(C)CC[C@H](NC(=O)c1ccc(Oc2cccc(C(=O)NCCOCCOCCOCCOCCOCCOCCOCCOCCNC(=O)CCCC[C@@H]3SC[C@@H]4NC(=O)N[C@@H]43)c2)nc1)C(=O)O [BF018, (2S)-2-[[6-[3-[2-[2-[2-[2-[2-[2-[2-[2-[2-[5-[(3aS,4S,6aR)-2-oxo-1,3,3a,4,6,6a-hexahydrothieno[3,4-d]imidazol-4-yl]pentanoylamino]ethoxy]ethoxy]ethoxy]ethoxy]ethoxy]ethoxy]ethoxy]ethoxy]ethylcarbamoyl]phenoxy]pyridine-3-carbonyl]amino]-5,5-dimethyl-hexanoic acid]
AUC score, target internalization [1]: ++ (AUC > 100)

Kd [3, 6]: 10 to 250 nM
Molecule: CC(C)(C)CC[C@H](NC(=O)c1ccc(Oc2cccc(OCCOCCOCCNC(=O)CCCC[C@@H]3SC[C@@H]4NC(=O)N[C@@H]43)c2)nc1)C(=O)O [BF022, (S)-5,5-dimethyl-2-(6-(3-(2-(2-(2-(5-((3aS,4S,6aR)-2-oxohexahydro-1H-thieno[3,4-d]imidazol-4-yl)pentanamido)ethoxy)ethoxy)ethoxy)phenoxy)nicotinamido) hexanoic acid]
AUC score, target internalization [1]: + (AUC < 100)

Kd [3, 6]: 10 to 250 nM
Molecule: CC(C)(C)CC[C@H](NC(=O)c1ccc(Oc2cccc3cc(C(=O)NCCCNC(=O)CCCC[C@@H]4SC[C@@H]5NC(=O)N[C@@H]54)ccc23)nc1)C(=O)O [BF024]
AUC score, target internalization [1]: + (AUC < 100)

Kd [3, 6]: 10 to 250 nM
Molecule: CC(C)(C)CC[C@H](NC(=O)c1ccc(Oc2cccc3c(C(=O)NCCCNC(=O)CCOCCOCCOCCOCCOCCNC(=O)CCCC[C@@H]4SC[C@@H]5NC(=O)N[C@@H]54)cccc23)nc1)C(=O)O [BF028, (2S)-2-[[6-[[5-[3-[3-[2-[2-[2-[2-[2-[5-[(3aS,4S,6aR)-2-oxo-1,3,3a,4,6,6a-hexahydrothieno[3,4-d]imidazol-4-yl]pentanoylamino]ethoxy]ethoxy]ethoxy]ethoxy]ethoxy]propanoylamino]propylcarbamoyl]-1-naphthyl]oxy]pyridine-3-carbonyl]amino]-5,5-dimethyl-hexanoic acid]
AUC score, target internalization [1]: ++ (AUC > 100)
